Experiment [1] deals with T1, ATP-dependent RNA helicase DHX33 (Mus musculus, UniProt Q80VY9).
T1 sequence (Q80VY9 whole entry): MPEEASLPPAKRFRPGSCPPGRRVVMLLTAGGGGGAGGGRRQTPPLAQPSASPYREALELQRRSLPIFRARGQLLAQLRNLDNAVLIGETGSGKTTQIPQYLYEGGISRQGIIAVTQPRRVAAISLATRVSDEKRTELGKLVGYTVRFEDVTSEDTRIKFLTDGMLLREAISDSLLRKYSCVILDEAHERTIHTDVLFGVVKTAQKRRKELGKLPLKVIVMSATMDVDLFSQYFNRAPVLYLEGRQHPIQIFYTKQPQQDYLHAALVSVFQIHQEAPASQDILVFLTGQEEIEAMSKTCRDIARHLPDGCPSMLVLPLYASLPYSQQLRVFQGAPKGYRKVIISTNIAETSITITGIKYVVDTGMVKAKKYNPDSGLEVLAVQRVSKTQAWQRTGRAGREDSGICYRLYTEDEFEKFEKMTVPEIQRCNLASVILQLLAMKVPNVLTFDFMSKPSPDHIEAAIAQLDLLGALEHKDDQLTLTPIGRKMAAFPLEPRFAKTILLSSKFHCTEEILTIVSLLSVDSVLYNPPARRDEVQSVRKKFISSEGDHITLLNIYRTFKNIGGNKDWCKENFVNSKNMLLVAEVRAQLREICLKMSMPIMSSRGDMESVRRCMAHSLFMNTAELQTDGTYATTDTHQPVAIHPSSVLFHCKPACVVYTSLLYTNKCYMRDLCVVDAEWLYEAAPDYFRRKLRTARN
The experiment is described as follows: Inhibition of N-terminal/C-terminal 6x His-tagged wild type recombinant mouse DHX33 transformed in Escherichia coli BL21(DE3)pLysS cells.

The target of experiment [2] is T2, Putative pre-mRNA-splicing factor ATP-dependent RNA helicase DHX32 (Homo sapiens, UniProt Q7L7V1).
T2 sequence (Q7L7V1 whole entry): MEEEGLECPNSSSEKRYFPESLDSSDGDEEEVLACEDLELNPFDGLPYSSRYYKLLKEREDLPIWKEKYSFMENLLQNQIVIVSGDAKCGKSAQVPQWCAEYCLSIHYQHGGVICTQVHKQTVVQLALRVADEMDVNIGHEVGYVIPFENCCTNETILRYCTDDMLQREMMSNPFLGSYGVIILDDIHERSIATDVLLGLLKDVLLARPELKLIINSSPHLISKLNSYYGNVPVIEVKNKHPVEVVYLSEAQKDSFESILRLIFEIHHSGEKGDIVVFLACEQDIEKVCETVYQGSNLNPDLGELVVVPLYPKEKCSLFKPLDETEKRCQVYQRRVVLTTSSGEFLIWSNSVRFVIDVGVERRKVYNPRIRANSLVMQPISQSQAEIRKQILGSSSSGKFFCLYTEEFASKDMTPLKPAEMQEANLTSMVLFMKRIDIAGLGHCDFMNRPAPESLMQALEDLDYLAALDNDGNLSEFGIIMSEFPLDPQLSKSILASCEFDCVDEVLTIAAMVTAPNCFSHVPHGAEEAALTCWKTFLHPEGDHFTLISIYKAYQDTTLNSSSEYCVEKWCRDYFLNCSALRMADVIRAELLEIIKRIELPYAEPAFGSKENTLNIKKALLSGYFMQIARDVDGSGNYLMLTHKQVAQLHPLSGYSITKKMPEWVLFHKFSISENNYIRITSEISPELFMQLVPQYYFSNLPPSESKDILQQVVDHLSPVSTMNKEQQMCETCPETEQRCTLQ
The experiment is described as follows: Inhibition of N-terminal thioredoxin-tagged human recombinant DHX32 transformed in Escherichia coli BL21(DE3)pLysS cells.

Experiment [3] deals with T3, Probable ATP-dependent RNA helicase DDX6 (Homo sapiens, UniProt P26196).
T3 sequence (P26196 whole entry): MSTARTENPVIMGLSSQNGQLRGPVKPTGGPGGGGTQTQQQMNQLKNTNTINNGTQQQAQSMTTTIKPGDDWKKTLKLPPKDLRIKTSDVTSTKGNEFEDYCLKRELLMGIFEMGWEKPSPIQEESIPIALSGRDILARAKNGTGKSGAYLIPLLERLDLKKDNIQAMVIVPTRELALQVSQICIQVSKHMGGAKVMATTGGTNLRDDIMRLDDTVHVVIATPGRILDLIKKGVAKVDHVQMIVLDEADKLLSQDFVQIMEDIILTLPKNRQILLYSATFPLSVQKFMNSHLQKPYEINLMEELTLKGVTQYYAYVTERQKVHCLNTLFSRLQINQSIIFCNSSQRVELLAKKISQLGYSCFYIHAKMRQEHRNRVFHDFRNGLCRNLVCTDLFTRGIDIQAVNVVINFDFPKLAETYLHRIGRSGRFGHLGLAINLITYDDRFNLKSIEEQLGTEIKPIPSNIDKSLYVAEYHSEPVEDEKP
The experiment is described as follows: Inhibition of N-terminal thioredoxin-tagged human recombinant DDX6 transformed in Escherichia coli BL21(DE3)pLysS cells.

In a further experiment the test system is U-251. Nature of the experiment: Antiproliferative activity against human U-251MG cells overexpressing DHX33 assessed as inhibition of cell growth measured after 48 hrs by CCK-8 assay. Conditions: U-251, 48 h. Format: functional, cell-based.
The target of experiment [4] is T4, Probable ATP-dependent RNA helicase DHX35 (Homo sapiens, UniProt Q9H5Z1).
T4 sequence (Q9H5Z1 whole entry): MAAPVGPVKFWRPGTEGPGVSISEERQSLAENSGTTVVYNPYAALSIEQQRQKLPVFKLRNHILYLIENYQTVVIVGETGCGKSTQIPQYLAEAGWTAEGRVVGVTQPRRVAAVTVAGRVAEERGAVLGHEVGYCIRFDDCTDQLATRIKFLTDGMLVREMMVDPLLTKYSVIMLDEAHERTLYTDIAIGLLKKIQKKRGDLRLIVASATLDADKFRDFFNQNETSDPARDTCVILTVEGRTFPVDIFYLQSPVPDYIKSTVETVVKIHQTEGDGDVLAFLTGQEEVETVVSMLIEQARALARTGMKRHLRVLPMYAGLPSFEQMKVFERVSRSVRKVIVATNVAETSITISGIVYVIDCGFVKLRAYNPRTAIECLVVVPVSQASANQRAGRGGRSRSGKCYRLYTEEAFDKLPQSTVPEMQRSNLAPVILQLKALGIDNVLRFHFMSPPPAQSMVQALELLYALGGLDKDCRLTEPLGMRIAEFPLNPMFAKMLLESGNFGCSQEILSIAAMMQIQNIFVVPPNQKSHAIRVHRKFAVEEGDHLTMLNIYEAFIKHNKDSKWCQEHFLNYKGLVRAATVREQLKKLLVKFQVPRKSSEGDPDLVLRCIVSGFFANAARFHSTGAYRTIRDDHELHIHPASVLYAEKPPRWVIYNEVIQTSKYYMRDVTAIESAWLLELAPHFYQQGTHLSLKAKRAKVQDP
Nature of the experiment: Inhibition of N-terminal thioredoxin-tagged human recombinant DHX35 transformed in Escherichia coli BL21(DE3)pLysS cells.

The target of experiment [5] is ATP-dependent RNA helicase DHX15 (Homo sapiens, UniProt O43143). The experiment is described as follows: Inhibition of N-terminal thioredoxin-tagged human recombinant DHX15 transformed in Escherichia coli BL21(DE3)pLysS cells.
Sequence of ATP-dependent RNA helicase DHX15 (O43143 whole entry): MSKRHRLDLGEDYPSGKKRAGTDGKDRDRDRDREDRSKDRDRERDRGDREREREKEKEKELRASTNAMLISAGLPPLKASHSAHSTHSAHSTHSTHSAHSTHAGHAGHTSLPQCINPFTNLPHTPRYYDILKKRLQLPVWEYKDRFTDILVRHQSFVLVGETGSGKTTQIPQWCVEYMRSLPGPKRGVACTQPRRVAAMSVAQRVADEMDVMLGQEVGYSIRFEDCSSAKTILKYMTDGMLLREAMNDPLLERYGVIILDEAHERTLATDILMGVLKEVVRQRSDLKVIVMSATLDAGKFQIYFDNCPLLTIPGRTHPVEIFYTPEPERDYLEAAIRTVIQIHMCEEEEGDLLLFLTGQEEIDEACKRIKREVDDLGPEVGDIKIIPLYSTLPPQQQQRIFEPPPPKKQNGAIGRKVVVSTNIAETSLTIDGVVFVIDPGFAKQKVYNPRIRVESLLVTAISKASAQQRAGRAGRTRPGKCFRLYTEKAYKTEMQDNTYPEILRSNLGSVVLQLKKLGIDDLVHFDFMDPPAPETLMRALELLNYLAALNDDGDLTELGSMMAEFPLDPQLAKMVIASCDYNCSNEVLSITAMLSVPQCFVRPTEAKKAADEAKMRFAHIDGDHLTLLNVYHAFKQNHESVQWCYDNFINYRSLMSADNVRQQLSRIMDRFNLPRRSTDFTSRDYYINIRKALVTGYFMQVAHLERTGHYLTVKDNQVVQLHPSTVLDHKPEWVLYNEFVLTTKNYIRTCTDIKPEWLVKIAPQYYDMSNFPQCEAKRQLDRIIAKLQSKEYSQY

As to `COc1ccc2nc(NC(=O)c3cc(C)n(-c4sc(C)cc4C#N)c3C)[nH]c2c1`, the 50% inhibitory concentration (IC50) in experiment [1] was 0.019 µM; in experiment [2], > 100 µM; in experiment [3], > 100 µM; with U-251, 0.02 µM; in experiment [4], 117 µM; in experiment [5] it was 6.3 µM.

These data come from ChEMBL document CHEMBL5390231, “Development of small molecule inhibitors targeting RNA helicase DHX33 as anti-cancer agents” (Bioorg Med Chem Lett, 2023).
